Assay results from patent US10047084B2, “Imidazolone derivatives, pharmaceutical compositions and uses thereof” (BEIJING FORELANDPHARMA CO. LTD., priority 2013, dated 2018).

Experiments:
[1] = tested on: PC-3; test: CTG cell survival assay, PC-3; assay type: cell-based; details: Homo sapiens, PC-3 cells
Text: (§1) 2. CTG Cell Survival Assay:
(§2) ATP is necessarily produced during the metabolic activities of viable cells, and there is a linear relationship between the content of ATP and the number of viable cells. Cell viability assay by CTG chemiluminescence is a general method for detecting the number of viable cells in the culture cells based on this principle. The addition of the CellTiter-Glo (CTG) reagent may induce cell lysis and produce chemiluminescent signals directly proportional to the amount of ATP in the well-plate, and thereby the cell proliferation activity in the well-plate can be measured by the reading values from the chemiluminescence.
(§3) 2.1 Experimental Materials and Instruments:
(§4) 2.4 Experimental Procedure: • 1.4.1 Cell Thawing: Cryogenic vials were removed from the liquid nitrogen container, directly immersed in a water bath at 37° C., and shaked from time to time to thaw. The cryogenic vials were removed from the water bath at 37° C., and transferred to the biosafe cabinet. Their lids were opened, and the cell suspensions were aspirated with pipettes, added to centrifuge tubes, and then added with more than 10 volumes of culture solution, mixed well; centrifuged for 5 min at 1000 rpm; the supernatant was discarded, and medium containing cell growth was added to resuspend cells. All cell suspensions were seeded to the T25 culture flasks and static cultured in an incubator at 37° C.; the culture solution were changed once on the next day, and continued to be cultured. • 2.4.2 Cell Passaging: After cells were grown to logarithmic phase and were 80%-90% confluent, cells were removed and placed in the biosafe cabinet, the old culture solution was discarded, and the cells were wetted and washed with PBS once or twice. An appropriate amount of 0.25% Trypsin-EDTA solution was added to the culture flasks. The flasks were placed in the carbon dioxide incubator at 37° C. for 2-5 min. An appropriate amount of cell growth medium containing 10% PBS was added to terminate the digestion, lightly swished, and transferred to the centrifuge tubes and centrifuged for 5 min at 1000 rpm. The cells were prepare (into cell suspensions for passaging and experimental use. • 2.4.3 Cell Plating • 2.4.3.1 A cell suspension was prepared: After cells were grown to logarithmic phase and were 80%-90% confluent, the cells were removed to the biosafe cabinet, and the old culture solution was discarded, then the cells were wetted and washed with PBS once or twice. An appropriate amount of 0.25% Trypsin-EDTA solution was added to the culture flask. The flask was placed in a carbon dioxide incubator at 37° C. for 2-5 min. An appropriate amount of the cell growth medium containing 10% PBS was added to terminate digestion, and was lightly swished. The solution was transferred to a centrifuge tube, centrifuged for 5 min at 1000 rpm, and counted. […] Secondly, 20 uM of the compound to be tested was diluted with the cell growth medium containing 0.2% DMSO in 3-fold dilution to obtain 9 concentrations, and there were 10 concentration gradients in total. • 2.4.4.3 Addition of the compounds to be tested: the prepared gradient dilution solutions of compounds to be tested were taken and added to the cell culture plate at 100 ul/well; at this point, the maximum concentration of compounds to be tested was 10 uM, and the concentration of DMSO was 0.1%.

[2] = target: mTOR kinase (Homo sapiens (Human), UniProt P42345); test: mTOR kinase activity assay (TR-FRET, GFP-4EBP1 substrate); assay type: biochemical; details: read-out: Enzyme (mTOR) IC50
Chain of mTOR kinase (P42345 1360-2549): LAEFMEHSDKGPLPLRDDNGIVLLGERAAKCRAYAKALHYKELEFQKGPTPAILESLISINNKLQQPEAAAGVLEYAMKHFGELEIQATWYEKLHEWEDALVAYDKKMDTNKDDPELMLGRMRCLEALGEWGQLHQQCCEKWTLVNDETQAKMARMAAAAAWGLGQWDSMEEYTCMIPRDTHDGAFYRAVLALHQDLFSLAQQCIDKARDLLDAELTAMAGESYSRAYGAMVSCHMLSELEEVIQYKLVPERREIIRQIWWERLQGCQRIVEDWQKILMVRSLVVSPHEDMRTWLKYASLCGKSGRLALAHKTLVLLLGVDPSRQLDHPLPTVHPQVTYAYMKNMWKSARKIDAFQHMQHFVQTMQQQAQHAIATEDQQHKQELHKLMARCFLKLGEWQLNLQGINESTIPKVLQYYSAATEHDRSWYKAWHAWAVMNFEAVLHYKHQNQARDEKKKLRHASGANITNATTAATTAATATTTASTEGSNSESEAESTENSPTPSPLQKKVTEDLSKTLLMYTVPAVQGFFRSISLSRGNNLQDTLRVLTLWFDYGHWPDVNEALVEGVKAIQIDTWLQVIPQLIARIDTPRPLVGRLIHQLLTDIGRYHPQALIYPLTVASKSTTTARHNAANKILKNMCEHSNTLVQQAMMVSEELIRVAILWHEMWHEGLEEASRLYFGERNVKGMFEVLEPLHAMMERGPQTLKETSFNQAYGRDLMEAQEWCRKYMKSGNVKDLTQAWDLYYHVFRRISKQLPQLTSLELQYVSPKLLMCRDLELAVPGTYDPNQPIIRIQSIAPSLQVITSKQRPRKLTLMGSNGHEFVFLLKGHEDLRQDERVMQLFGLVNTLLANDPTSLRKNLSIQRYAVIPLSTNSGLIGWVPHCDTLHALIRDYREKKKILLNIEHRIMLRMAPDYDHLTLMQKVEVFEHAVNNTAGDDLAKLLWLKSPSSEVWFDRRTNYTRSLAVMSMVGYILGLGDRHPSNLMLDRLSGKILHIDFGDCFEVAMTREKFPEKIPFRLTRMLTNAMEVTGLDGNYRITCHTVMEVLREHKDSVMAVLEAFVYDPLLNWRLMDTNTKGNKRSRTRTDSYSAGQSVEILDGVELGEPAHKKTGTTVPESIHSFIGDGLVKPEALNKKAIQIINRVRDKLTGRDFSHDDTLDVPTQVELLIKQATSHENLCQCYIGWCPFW
Description: 1. mTOR Kinase Activity Assay: The inhibition of the mTOR protein kinase activity by the compounds was determined by the enzymatic activity assay in vitro. The detection kit supplied by Invitrogen was used to detect the inhibition of the activity of the mTOR […]. The principle of the assay was as follows: mTOR kinase, fluorescein-labeled substrate and ATP were mixed, and after the reaction, EDTA and terbium-labeled first antibody were added. During the chemical reaction process of the mTOR kinase, the antibody recognized the phosphorylated and fluorescein-labeled substrate, and then the “time-resolved fluorescence resonance energy transfer” (TR-FRET) effect was enhanced. TR-FRET effect was calculated as the ratio of signals from the acceptor fluorescein to signals from the donor terbium. The amount of the antibody bound to the tracer was directly proportional to the amount of the phosphorylated substrate after the reaction. In this way, the kinase activity can be detected. In this assay, the substrate of the mTOR kinase was green fluorescent protein-coupled 4E binding protein 1 (GFP-4EBP1).
1.1 Materials and Instruments:
4-Hydroxyethylpiperazine ethanesulfonic acid (HEPES, Sigma, Cat# SH3375), ethylene glycol-bis-(2-aminoethylether)-tetraacetic acid (EGTA, Sigma, Cat# E3889), manganese chloride (MnCl2, Sigma, Cat# M1787), Tween-20 (Tween-20, Amresco), 1,4-dithiothreitol (DTT, Merck, CB233155),

[3] = tested on: MV-4-11; test: CTG cell survival assay, MV-4-11; assay type: cell-based; details: Homo sapiens, MV4-11, MV-4-11 cells
Text: as §1, §2, §3
2.1.1 Experimental Materials: compounds to be tested, cell basal culture medium, RPMI Medium 1640 (Invitrogen, Cat#11875-093), fetal calf serum (FBS): Hyclone FETAL BOVINE SERUM DEFINED (Invitrogen, Cat#SH30070.03), antibiotics: Penicilin Streptomycin (Invitrogen, Cat#15140-122), phosphate buffer (Corning Cellgro, Cat#R21-040-CV), cell digestive solution: 0.25% Trypsin-EDTA (Invitrogen, Cat#25200-056), CTG detection kit: Promega, Cat#G7571, flat-bottom 96-well black bottom plate: NUNC, Cat#165305, T25 culture flask: NUNC, Cat#156367, T75 culture flask: NUNC, Cat#156439
2.2 Experimental Instruments: Carbon Dioxide Incubator, SANYO-MCO-20AIC, Biosafe Cabinet: BSC-1360-LIIA2, Table-Top High-Speed Refrigerated Centrifuge: SorvallST 16R, Microplate Rapid Oscillator: QB-9001, M3 Reader: SpectraMax M3, Microscope: OLYMPUS-CKX41/CKX31.
2.3 Preparation of Solutions and Reagents: Formulation of cell growth medium: RPMI Medium 1640+10% FBS+antibiotics, others: trypsin digestive solution, phosphate buffer (PBS), DMSO, CTG detection kit.
2.4 Experimental Procedure: • 1.4.1 Cell Thawing: Cryogenic vials were removed from the liquid nitrogen container, directly immersed in a water bath at 37° C., and shaked from time to time to thaw. The cryogenic vials were removed from the water bath at 37° C., and transferred to the biosafe cabinet. Their lids were opened, and the cell suspensions were aspirated with pipettes, added to centrifuge tubes, and then added with more than 10 volumes of culture solution, mixed well; centrifuged for 5 min at 1000 rpm; the supernatant was discarded, and medium containing cell growth was added to resuspend cells. All cell suspensions were seeded to the T25 culture flasks and static cultured in an incubator at 37° C.; the culture solution were changed once on the next day, and continued to be cultured. • 2.4.2 Cell Passaging: After cells were grown to logarithmic phase and were 80%-90% confluent, cells were removed and placed in the biosafe cabinet, the old culture solution was discarded, and the cells were wetted and washed with PBS once or twice. An appropriate amount of 0.25% Trypsin-EDTA solution was added to the culture flasks. The flasks were placed in the carbon dioxide incubator at 37° C. for 2-5 min. An appropriate amount of cell growth medium containing 10% PBS was added to terminate the digestion, lightly swished, and transferred to the centrifuge tubes and centrifuged for 5 min at 1000 rpm. The cells were prepare (into cell suspensions for passaging and experimental use. • 2.4.3 Cell Plating • 2.4.3.1 A cell suspension was prepared: After cells were grown to logarithmic phase and were 80%-90% confluent, the cells were removed to the biosafe cabinet, and the old culture solution was discarded, then the cells were wetted and washed with PBS once or twice. An appropriate amount of 0.25% Trypsin-EDTA solution was added to the culture flask. The flask was placed in a carbon dioxide incubator at 37° C. for 2-5 min. An appropriate amount of the cell growth medium containing 10% PBS was added to terminate digestion, and was lightly swished. The solution was transferred to a centrifuge tube, centrifuged for 5 min at 1000 rpm, and counted. […]

[4] = tested on: SK-BR3/BT474; test: CTG cell survival assay, SK-BR3/BT474; assay type: cell-based; details: SK-BR3/BT474 cells
Text: as §1, §2, §3, §4

Compound | EC50 [1] [nM] | IC50 [2] [nM] | EC50 [3] [nM] | EC50 [4] [nM]
Cn1cc(-c2ccc(-c3ccc4ncc5c(c4n3)n([C@H]3CCN(S(C)(=O)=O)C3)c(=O)n5C)cn2)cn1 [Example 38, (S)-3-methyl-8-(6-(1-methyl-1H-pyrazol-4-yl)pyridin-3-yl)-1-(1-(methanesulfonyl)pyrrolidin-3-yl)-1H-imidazol-[4,5-c][1,5]naphthyridin-2(3H)-one] | 21 | < 10 | – | –
CCNC(=O)N1CCC[C@@H](n2c(=O)n(C)c3cnc4ccc(-c5ccc(-c6cnn(C)c6)nc5)cc4c32)C1 [Example 55, (R)—N-ethyl-3-(3-methyl-8-(6-(1-methyl-1H-pyrazol-4-yl)pyridin-3-yl)-2-oxo-2,3-dihydro-1H-imidazo[4,5-c]quinolin-1-yl)piperidine-1-formamide] | 300 | – | 800 | 300
Cn1c(=O)n([C@H]2CC[C@H](O)CC2)c2c3cc(-c4ccc(-c5ccccc5)nc4)ccc3ncc21 [Example 25, 1-((1r,4r)-4-hydroxycyclohexyl)-3-methyl-8-(6-phenylpyridin-3-yl)-1H-imidazo[4,5-c]quinolin-2(3H)-one] | < 100 | – | < 500 | < 500
CC(=O)N[C@H]1CC[C@@H](n2c(=O)n(C)c3cnc4ccc(-c5ccc(-c6cnn(C)c6)nc5)cc4c32)CC1 [Example 33, N-((1s,4s)-4-(3-methyl-8-(6-(1-methyl-1H-pyrazol-4-yl)pyridin-3-yl)-2-oxo-2,3-dihydro-1H-imidazo[4,5-c]quinolin-1-yl)cyclohexyl)acetamide] | < 200 | – | < 500 | < 100
Cn1c(=O)n([C@H]2CCN(S(C)(=O)=O)C2)c2c3cc(-c4ccc(-n5cccn5)nc4)ccc3ncc21 [Example 44, (S)-8-(6-(1H-pyrazol-1-yl)pyridin-3-yl)-3-methyl-1-(1-(methanesulfonyl)pyrrolidin-3-yl)-1H-imidazo[4,5-c]quinolin-2(3H)-one] | < 50 | – | 40 | 90
Cn1ccc(-c2ccc(-c3ccc4ncc5c(c4c3)n([C@H]3CCN(S(C)(=O)=O)C3)c(=O)n5C)cn2)n1 [Example 47, (S)-3-methyl-8-(6-(1-methyl-1H-pyrazol-3-yl)pyridin-3-yl)-1-(1-(methanesulfonyl)pyrrolidin-3-yl)-1H-imidazo[4,5-c]quinolin-2(3H)-one] | 30 | – | < 100 | 40
Cn1cc(-c2ccc(-c3ccc4ncc5c(c4c3)n(C3CC4CCC(C3)N4S(C)(=O)=O)c(=O)n5C)cn2)nn1 (stereo not drawn) [Example 61, 3-methyl-8-(6-(1-methyl-1H-1,2,3-triazol-4-yl)pyridin-3-yl)-1-(8-(methanesulfonyl)-8-azabicyclo[3.2.1]octan-3-yl)-1H-imidazo[4,5-c]quinolin-2(3H)-one] | < 10 | – | < 20 | < 10
Cn1cc(-c2ccc(-c3ccc4ncc5c(c4c3)n([C@H]3CCN(S(C)(=O)=O)C3)c(=O)n5C)cn2)nn1 [Example 45, (S)-3-methyl-8-(6-(1-methyl-1H-1,2,3-triazol-4-yl)pyridin-3-yl)-1-(1-(methanesulfonyl)pyrrolidin-3-yl)-1H-imidazo quinolin-2(3H)-one] | < 10 | – | < 20 | < 20
Cn1cc(-c2ccc(-c3ccc4ncc5c(c4n3)n([C@@H]3CCCN(S(C)(=O)=O)C3)c(=O)n5C)cn2)cn1 [Example 49, (R)-3-methyl-8-(6-(1-methyl-1H-pyrazol-4-yl)pyridin-3-yl)-1-(1-(methanesulfonyl)piperidin-3-yl)-1H-imidazo[4,5-c][1,5]naphthyridin-2(3H)-one] | 10 | – | < 20 | 20
Cn1cc(-c2ccc(-c3ccc4ncc5c(c4c3)n(C3CCN(S(C)(=O)=O)CC3)c(=O)n5C)cn2)cn1 [Example 59, 3-methyl-8-(6-(1-methyl-1H-pyrazol-4-yl)pyridin-3-yl)-1-(1-(methanesulfonyl)piperidin-4-yl)-1H-imidazo[4,5-c]quinolin-2(3H)-one] | 30 | – | 100 | < 100
Cn1cc(-c2ccc(-c3ccc4ncc5c(c4c3)n(C3CC4CCC(C3)N4S(C)(=O)=O)c(=O)n5C)cn2)cn1 (stereo not drawn) [Example 62, 3-methyl-8-(6-(1-methyl-1H-pyrazol-4-yl)pyridin-3-yl)-1-(8-(methanesulfonyl)-8-azabicyclo[3.2.1]octan-3-yl)-1H-imidazo[4,5-c]quinolin-2(3H)-one] | < 10 | – | < 20 | < 20
Cn1cc(-c2ccc(-c3ccc4ncc5c(c4c3)n(C3CCCN(C(=O)c4nc[nH]n4)C3)c(=O)n5C)cn2)cn1 (stereo not drawn) [Example 2, 1-(1-(1H-1,2,4-triazole-3-carbonyl)piperidin-3-yl)-3-methyl-8-(6-(1-methyl-1H-pyrazol-4-yl)pyridin-3-yl)-1H-imidazo[4,5-c]quinolin-2(3H)-one] | – | 100 to 1000 | – | –
